The nature of data set [1]: Decarboxylation of oxaloacetate to produce pyruvate was measured bythe conversion of NADH to NAD+ in the lactate dehydrogenase mediated transformation of pyruvate to lactate; expressed as Catalytic efficiency as the ratio of (kcat/KM).
Data set [2] is described as follows: Catalytic efficiency is the ratio of (kcat/KM).
Data set [3] concerns the target L-lactate dehydrogenase B chain (Sus scrofa) (UniProt P00336). Put plainly: (§1) Decarboxylation of oxaloacetate to produce pyruvate was measured bythe conversion of NADH to NAD+ in the lactate dehydrogenase mediated transformation of pyruvate to lactate at a uM.
Data set [4] shares this target. The data set can be described thus: Decarboxylation of oxaloacetate to produce pyruvate was measured by the conversion of NADH to NAD+ in the lactate dehydrogenase mediated transformation of pyruvate to lactate at a uM.
In data set [5] the test system is CC(=O)NCC(=O)N1CCC[C@H]1C(=O)N[C@@H](CO)C(=O)N[C@@H](CCC(N)=O)C(=O)N1CCC[C@H]1C(=O)N[C@H](C(=O)N[C@@H](Cc1ccc(O)cc1)C(=O)N1CCC[C@H]1C(=O)NCC(=O)N[C@@H](CC(=O)O)C(=O)N[C@@H](CC(=O)O)C(=O)N[C@@H](C)C(=O)N1CCC[C@H]1C(=O)N[C@H](C(=O)N[C@@H](CCC(=O)O)C(=O)N[C@@H](CC(=O)O)C(=O)N[C@@H](CC(C)C)C(=O)N[C@@H](CCCCN)C(=O)N[C@@H](CCCN=C(N)N)C(=O)N[C@@H](Cc1ccccc1)C(=O)N[C@@H](Cc1ccc(O)cc1)C(=O)N[C@@H](CCCCN)C(=O)N[C@@H](CC(N)=O)C(=O)N[C@@H](CC(C)C)C(=O)N[C@@H](CCCCN)C(=O)N[C@@H](CCC(N)=O)C(=O)N[C@@H](Cc1ccc(O)cc1)C(=O)N[C@@H](CC(C)C)C(=O)N[C@@H](CCCCN)C(=O)N[C@H](C(=O)N[C@H](C(N)=O)C(C)C)C(C)C)C(C)C)[C@@H](C)O. Described as §1.

The subject of data set [6] is CC(C)C[C@H](NC(=O)[C@H](C)NC(=O)[C@H](CCCCN)NC(=O)[C@H](CC(C)C)NC(=O)[C@H](CC(C)C)NC(=O)[C@@H](CCCCN)NC(=O)[C@H](C)NC(=O)[C@@H](N)CC(C)C)C(=O)N[C@@H](C)C(=O)N[C@@H](CCCCN)C(=O)N[C@@H](CC(C)C)C(=O)N[C@@H](CC(C)C)C(=O)N[C@@H](CCCCN)C(=O)N[C@@H](CCCCN)C(N)=O. Described as §1.

Several values for one entry are separate records, joined by “and”; a condition that tells them apart may be missing. Identical values can stand only once.

Broadly, the Km is the concentration of substrate that gives half-maximal velocity.

Chain of L-lactate dehydrogenase B chain (Sus scrofa) (P00336 whole entry): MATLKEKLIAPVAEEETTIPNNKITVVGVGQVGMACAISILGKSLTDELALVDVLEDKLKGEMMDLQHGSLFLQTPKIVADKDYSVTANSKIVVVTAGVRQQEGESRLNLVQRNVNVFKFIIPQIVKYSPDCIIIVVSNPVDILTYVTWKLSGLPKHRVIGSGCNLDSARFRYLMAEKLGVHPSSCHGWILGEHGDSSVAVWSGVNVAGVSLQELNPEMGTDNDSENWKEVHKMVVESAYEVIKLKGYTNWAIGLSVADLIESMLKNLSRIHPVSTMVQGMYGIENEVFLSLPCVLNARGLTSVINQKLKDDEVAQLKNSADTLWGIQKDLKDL
Chain of L-lactate dehydrogenase B chain (Sus scrofa), P00336 (P00336 whole entry): as above

For `NCC(N)=O`, the k cat/Km in data set [1] stood at 0.011 M⁻¹ s⁻¹.

Regarding `CC(C)C[C@H](NC(=O)[C@H](C)NC(=O)[C@H](CCCCN)NC(=O)[C@H](CC(C)C)NC(=O)[C@H](CC(C)C)NC(=O)[C@@H](CCCCN)NC(=O)[C@H](C)NC(=O)[C@@H](N)CC(C)C)C(=O)N[C@@H](C)C(=O)N[C@@H](CCCCN)C(=O)N[C@@H](CC(C)C)C(=O)N[C@@H](CC(C)C)C(=O)N[C@@H](CCCCN)C(=O)N[C@@H](CCCCN)C(N)=O`, the k cat/Km in data set [2] is 0.153 M⁻¹ s⁻¹ and 0.071 M⁻¹ s⁻¹. Besides, the k cat in data set [3] was determined as 0.0075 s⁻¹; in data set [4] it was 0.015 s⁻¹.

As to “L-lactate dehydrogenase B chain (Sus scrofa), P00336”, the Km was found to be 49.4 mM in data set [5] and 48 mM in data set [6].

`CCCCN`: the k cat/Km in data set [1] came to 0.0005 M⁻¹ s⁻¹.

For Ac-GPSQPTYPGDDAPVEDLKRFYKNLKQYLKVV-NH2, the k cat/Km in data set [2] amounted to 1.74 M⁻¹ s⁻¹. In addition, in data set [3], the k cat is 0.086 s⁻¹.
